Measurements taken from patent US11058775B2, “Insulin dimer-incretin conjugates” (Merck Sharp & Dohme Corp., priority 2016, dated 2021).

Molecular target: T1, human GCGR (Homo sapiens, UniProt P47871)
T1 construct: expressed in transfected cells; grown under Blasticidin and Hygromycin selection
Assay: cAMP activity assay, cells expressing human GCGR
Format: cell-based
Settings: ratio of hGCGR EC50 to hGLP1R EC50, Table 7
Description: Activity of the peptides and the conjugates at the Glucagon receptor (GCGR) and GLP-1 receptor (GLP1R) may be measured in a cAMP activity assay as follows.
Peptides are dissolved in 100% DMSO and serially diluted to generate 10 point titrations. The peptide solutions are then transferred into 384-well assay plates (150 nL/well). Assay ready frozen cells expressing human GIPR, GLP1R or human GCGR are suspended in growth media consisting of DMEM medium (GIBCO), 10% FBS (GIBCO), 1×NEAA(GIBCO), 1×P/S (GIBCO), 10 μg/mL Blasticidin (GIBCO) and 200 μg/mL Hygromycin (GIBCO). […] The cell suspensions (15 μL) are then added to the assay plates containing the peptide solutions (30,000 cells/well for human GCGR; 10,000 cells/well for human GLP1R and 15,000 cells/well for human GIPR). The cells are incubated for one hour at room temperature in the dark.
Production of cAMP may be determined using HitHunter™ cAMPXS kits (DiscoverX) following the manufacturer's protocol. The plates are incubated for overnight at room temperature in the dark. Luminescence may be measured using an EnVision Multilabel plate reader (Perkin Elmer). Native GIP, GLP-1 and Glucagon (Bachem) may be used as control peptides. EC50 values may be calculated using uses a 4 parameter logistic fit based on the Levenberg-Marquardt algorithm.

T1 sequence (P47871 26-477): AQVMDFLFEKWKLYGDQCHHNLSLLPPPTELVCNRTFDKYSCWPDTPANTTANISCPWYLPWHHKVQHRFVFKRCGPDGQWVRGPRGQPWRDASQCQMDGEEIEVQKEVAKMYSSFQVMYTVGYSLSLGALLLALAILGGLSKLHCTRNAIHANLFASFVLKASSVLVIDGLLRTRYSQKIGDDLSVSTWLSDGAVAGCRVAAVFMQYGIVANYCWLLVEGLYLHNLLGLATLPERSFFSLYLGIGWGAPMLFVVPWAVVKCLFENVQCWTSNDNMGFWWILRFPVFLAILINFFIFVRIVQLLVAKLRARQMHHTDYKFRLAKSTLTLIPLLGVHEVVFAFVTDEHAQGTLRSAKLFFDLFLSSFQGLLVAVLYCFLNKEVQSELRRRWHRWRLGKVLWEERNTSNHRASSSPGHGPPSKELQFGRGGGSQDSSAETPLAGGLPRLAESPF

CC(C)C[C@H](NC(=O)[C@H](Cc1ccc(O)cc1)NC(=O)[C@H](CCCCN)NC(=O)[C@H](CO)NC(=O)[C@H](CCCCN)NC(=O)[C@H](CC(=O)O)NC(=O)[C@H](CO)NC(=O)[C@@H](NC(=O)[C@H](Cc1ccccc1)NC(=O)[C@@H](NC(=O)CNC(=O)[C@H](CCC(N)=O)NC(=O)[C@@H](CO)NC(=O)[C@@H](N)Cc1c[nH]cn1)[C@@H](C)O)[C@@H](C)O)C(=O)N[C@@H](CC(=O)O)C(=O)N[C@@H](CCC(=O)O)C(=O)N[C@@H](CCCNC(=N)N)C(=O)N[C@@H](C)C(=O)N[C@@H](C)C(=O)N[C@@H](CCC(N)=O)C(=O)N[C@@H](CC(=O)O)C(=O)N[C@@H](Cc1ccccc1)C(=O)N[C@H](C(=O)N[C@@H](CCCCN=[N+]=[N-])C(=O)N[C@@H](Cc1c[nH]c2ccccc12)C(=O)N[C@@H](CC(C)C)C(=O)N[C@@H](CC(C)C)C(=O)N[C@@H](CC(=O)O)C(=O)N[C@H](C(N)=O)[C@@H](C)O)C(C)C [PEP88]
GCGR/GLP1R ratio: 0.97
